Data set [1] concerns Mus musculus. Briefly: Antihyperglycemic effect in ob/ob B6.V-Lepob/J mouse assessed as reduction in blood glucose level at 20 mg/kg once daily after 14 days relative to control. Type of data set: functional. Set-up: scale not given: the % may be the effect or the level left.
Data set [2] can be described thus: AUC in Sprague-Dawley rat plasma at 5 mg/kg, po after 24 hrs. Type of data set: ADME, organism-based. Also on record: time < 24 hr, dose 5 mg/kg, route oral.
Data set [3] can be described thus: Volume of distribution at steady state in Sprague-Dawley rat plasma after 24 hrs. Conditions: read-out: Vdss. It is filed as ADME, organism-based.
Data set [4] in a line: Half life in Sprague-Dawley rat plasma at 5 mg/kg, iv after 24 hrs. Also on record: dose 5 mg/kg, route intravenous. Type of data set: ADME, organism-based.
Data set [5] is filed under the species Mus musculus. In words: Antihyperglycemic effect in ob/ob B6.V-Lepob/J mouse assessed as reduction in plasma glucose level after 14 days relative to control. It is filed as functional, organism-based.
A short description of data set [6]: Bioavailability in Sprague-Dawley rat plasma at 5 mg/kg, po after 24 hrs. Type of data set: ADME, organism-based.
Data set [7] is described as follows: Clearance in Sprague-Dawley rat plasma after 24 hrs. Type of data set: ADME, organism-based.
The target in data set [8] is T1, Peroxisome proliferator-activated receptor alpha (Homo sapiens, UniProt Q07869).
T1 sequence (Q07869 whole entry): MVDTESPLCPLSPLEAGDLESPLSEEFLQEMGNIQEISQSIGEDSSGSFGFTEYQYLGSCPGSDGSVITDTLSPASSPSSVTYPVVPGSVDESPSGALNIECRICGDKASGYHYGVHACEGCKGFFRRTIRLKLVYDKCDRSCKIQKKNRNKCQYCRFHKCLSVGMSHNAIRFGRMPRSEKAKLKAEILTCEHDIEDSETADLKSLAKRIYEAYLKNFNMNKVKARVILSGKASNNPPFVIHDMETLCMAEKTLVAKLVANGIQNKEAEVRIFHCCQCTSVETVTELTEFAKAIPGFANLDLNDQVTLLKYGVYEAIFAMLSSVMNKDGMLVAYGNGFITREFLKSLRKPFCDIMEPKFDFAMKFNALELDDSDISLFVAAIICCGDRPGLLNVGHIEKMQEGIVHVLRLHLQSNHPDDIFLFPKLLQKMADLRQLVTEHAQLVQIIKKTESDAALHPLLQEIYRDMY

The subject of data set [9] is Rattus norvegicus. Briefly: Reduction of plasma glucose level in Zucker diabetic fa/fa rat at 10 mg/kg, po. Set-up: scale not given: the % may be the effect or the level left. It is filed as functional.
The subject of data set [10] is Rattus norvegicus. Briefly: Decrease in fasting serum triglyceride level in Zucker diabetic fa/fa rat at 10 mg/kg, po. Type of data set: functional. Set-up: scale not given: the % may be the effect or the level left.
Data set [11] deals with Rattus norvegicus. In words: Increase in high density lipoprotein level in Zucker diabetic fa/fa rat at 10 mg/kg, po. Type of data set: functional.
The nature of data set [12]: Half life in Sprague-Dawley rat plasma at 1 mg/kg, iv after 24 hrs. Type of data set: ADME, organism-based. Set-up: dose 1 mg/kg, route intravenous.

Structures are written as SMILES. Active and inactive are the calls of the source. The calls are words filed in the database; no cut-off is given here. Bounds are passed on as bounds.

As for `Cc1oc(-c2ccccc2)nc1CCCc1ccc(C[C@@H](C(=O)O)n2cccc2)cc1`, in data set [1], the Activity was found to be 70%. The area under the curve (AUC) at 24 h in [2] was 8650 ng·h/mL. The Vd in data set [3] was determined as 1.06 L/kg. In data set [4], this molecule showed a half-life of 8.4 h. Besides, in data set [5], the outcome was Active. The same molecule registered a bioavailability in [6] of 50%. The molecule also had a clearance in [7] of 5.3 mL/min/kg.
In turn, `CN(CC#Cc1ccc(C[C@@H](C(=O)O)n2cccc2)cc1)c1ccccc1` showed a concentration giving a half-maximal response (EC50) in [8] above 100 µM.
Still for that read-out and setting: to `Cc1oc(-c2ccccc2)nc1CC#Cc1ccc(CC(C(=O)O)c2cccc(-c3ccccc3)c2)cc1` (racemic) belongs 2.8 µM; to `CN(C/C=C/c1ccc(C[C@@H](C(=O)O)n2cccc2)cc1)c1ccccn1`, 29 µM.
Same read-out and setting: next, `Cc1oc(-c2ccccc2)nc1CN(C)Cc1ccc(C[C@@H](C(=O)O)n2cccc2)cc1`: 12 µM; `CN(CC#Cc1ccc(CC(C(=O)O)n2cccc2)cc1)c1ccccn1` (racemic): above 100 µM.
The molecule `Cc1oc(-c2ccccc2)nc1CC#Cc1ccc(CC(C(=O)O)c2cccnc2)cc1` (racemic) registered a concentration giving a half-maximal response (EC50) in data set [8] of 16 µM.
Regarding `Cc1oc(-c2ccccc2)nc1CCOc1ccc(C[C@@H](C(=O)O)n2cccc2)cc1`, the Activity in data set [9] stood at 40%; in data set [10], 24%; in data set [11] it was 31%.
Consider `CC(=O)N(Cc1ccc(C[C@@H](C(=O)O)n2cccc2)cc1)Cc1nc(-c2ccccc2)oc1C`, for which, in [8], the concentration giving a half-maximal response (EC50) was above 30 µM.
The same measure, in the same setting: next, `Cc1oc(-c2ccccc2)nc1CC#Cc1ccc(CC(C(=O)O)c2ccc(-c3ccccc3)cc2)cc1` (racemic): 4 µM.
Regarding `Cc1oc(-c2ccccc2)nc1C/C=C/c1ccc(C[C@@H](C(=O)O)n2cccc2)cc1`, the Activity in [1] amounted to 71%. In data set [2], this molecule displayed an AUC at 24 h of 55400 ng·h/mL. Moreover, the Vd in data set [3] was 0.408 L/kg. Further, the outcome in data set [5] was Active. In data set [6], this molecule displayed a bioavailability of 62%. Further, the half-life in data set [12] is 5.6 h. In addition, the clearance in data set [7] came out at 0.9 mL/min/kg.
Molecule `Cc1oc(-c2ccccc2)nc1CNCc1ccc(C[C@@H](C(=O)O)n2cccc2)cc1` gave an EC50 in [8] above 30 µM.
In data set [8], `CN(C/C=C/c1ccc(C[C@@H](C(=O)O)n2cccc2)cc1)c1ccccc1` came in with an EC50 above 30 µM.
In the case of `Cc1oc(-c2ccccc2)nc1CCNc1ccc(C[C@@H](C(=O)O)n2cccc2)cc1`, the result in [1] was inactive.

As usually defined, the AUC is concentration integrated over time. A word on the half-life: it is how long it takes for the measured level to halve. Usually bioavailability stands for dose-corrected exposure relative to a reference, in per cent. As usually defined, the clearance is the rate of elimination divided by the concentration. Usually EC50 stands for the concentration giving half of the maximal effect.
